Experimental data reported in PMC7449411, “In silico discovery and biological validation of ligands of FAD synthase, a promising new antimicrobial target” (PLoS Computational Biology, 2020).
Values after ≈ are worked out from the molar mass of the structure shown.

Tests used:
C. glutamicum = test: MIC, resazurin broth microdilution; format: cell-based, Corynebacterium glutamicum; details: media BHI
P. aeruginosa = test: MIC, resazurin broth microdilution; format: cell-based, Pseudomonas aeruginosa; details: media MH
Bacillus spp. = test: MIC, resazurin broth microdilution; format: cell-based, Bacillus sp.; details: media MH
CaFADS = biological target: T1, CaFADS (Corynebacterium ammoniagenes, UniProt Q59263); test: Differential scanning fluorescence (thermal denaturation) binding to CaFADS; details: for Tm shift of CaFADS thermal denaturation: 2 μM CaFADS, compound up to 250 μM; for Kd: from differential scanning fluorescence data fitted to Eq 2, 20 mM PIPES pH 7.0, 10 mM MgCl2, 2% DMSO, n = 3, mean ± SD
T1 construct: made in house; host or cells: Escherichia coli BL21(DE3)
Procedure: Interaction of compounds with CaFADS was evaluated using fluorescence thermal denaturation, on the bases of the shifts in denaturation midpoints of thermal curves of the protein [65]. Denaturations were performed in a Stratagene Agilent Mx3005p qPCR instrument (Santa Clara, US) following SYPR Orange (ThermoFisher Scientific) emission fluorescence (excitation at 492 nm and emission at 610 nm), which greatly increases when this probe binds to protein hydrophobic regions becoming solvent exposed upon thermal unfolding. Solutions containing 2 μM CaFADS with the studied compound in an increasing 5-250 μM concentration range (2% residual final concentration of DMSO) and 5xSYPR Orange in 20 mM PIPES pH 7.0, 10 mM MgCl2, with a 100 μL total volume were dispensed into 96-well microplates (BRAND 96-well plates pure grade™). After an initial 1 min incubation at 25 °C within the equipment, unfolding curves were registered from 25 to 100 °C at 1 °C·min^−1. Control experiments with CaFADS samples with/without DMSO were routinely performed in each microplate. For those compounds shifting midpoint denaturation temperature, Tm, the dissociation constant, Kd, was predicted by fitting the data to the equation [66] ΔTm/Tm=NRTm0/ΔH0ln(1+[L]/Kd), (2) which estimates the extent of the ligand-induced protein stabilization/destabilization. ΔTm=|Tm-Tm0| with Tm0 and Tm being the midpoint denaturation temperatures in the absence and the presence of ligand, respectively, and ΔH0 the unfolding enthalpy of the protein in the absence of ligand.

Mycobacteriumspecies = test: MIC against Mycobacterium species (S5 Fig legend); format: cell-based
L. monocytogenes = test: MIC, resazurin broth microdilution; format: cell-based, Listeria monocytogenes; details: media BHI
M. smegmatis = test: MIC, resazurin broth microdilution; format: cell-based, Mycobacterium smegmatis; details: media 7H9G-ADC
C. ammoniagenes = test: MIC, resazurin broth microdilution; format: cell-based, Corynebacterium ammoniagenes; details: for MIC: C. ammoniagenes; for MIC (μM) C. ammoniagenes: Table 3; for MIC C. ammoniagenes: S5 Fig legend, medium not stated
C. diphteriae = test: MIC, resazurin broth microdilution; format: cell-based, Corynebacterium diphteriae
S. pneumoniae = test: MIC, resazurin broth microdilution; format: cell-based, Streptococcus pneumoniae
M. tuberculosis = test: MIC, resazurin broth microdilution; format: cell-based, Mycobacterium tuberculosis; details: for MIC: M. tuberculosis, media 7H9G-ADC; for MIC (μM) M. tuberculosis: Table 3
E. coli = test: MIC, resazurin broth microdilution; format: cell-based, Escherichia coli; details: media LB
S. thyphimurium = test: MIC, resazurin broth microdilution; format: cell-based, Salmonella thyphimurium; details: media MH
FMNAT activity of CaFADS = biological target: T2, FMNAT activity of CaFADS (Corynebacterium ammoniagenes, UniProt Q59263); test: Inhibition of the FMNAT activity of CaFADS; format: biochemical
T2 construct: made in house; host or cells: Escherichia coli BL21(DE3)
Procedure: (§1) To determine the compound’s ability to inhibit the RFK and/or the FMNAT activities of CaFADS, both enzymatic activities were quantitatively measured in the absence and presence of the compounds following previously described protocols. Reaction mixtures contained 50 μM ATP, 5 μM RF in 20 mM PIPES, pH 7.0, 0.8 mM MgCl2, when assaying the RFK activity, and 50 μM ATP, 10 μM FMN in 20 mM PIPES, pH 7.0, 10 mM MgCl2 when measuring the FMNAT reaction. Each compound was tested at 250 μM (0.5% residual final concentration of DMSO) for each of the two enzymatic reactions. The samples were pre-incubated at 25 °C, the reaction was then initiated by the addition of ∼ 40 nM CaFADS (final concentration) and allowed for 1 min. Finally, the reaction was stopped by boiling the samples for 5 min and the denatured protein was eliminated through centrifugation. The transformation of RF into FMN and FAD (RFK activity) and of FMN into FAD (FMNAT activity) was evaluated through flavins separation by HPLC (Waters), as previously described. All the experiments were performed in triplicate. To evaluate the potency of compounds as inhibitors, we took advantage of the decrease in quantum yield of fluorescence when FMN is transformed into FAD, which allows to follow such transformation in a continuous system. Measurements were carried out using a microplate reader Synergy HT multimode plate reader (Biotek) with BRAND 96-well plates pure Grade. Reaction mixtures contained 5 μM RF or FMN, and 50 μM ATP in 20 mM PIPES, pH 7.0, 10 mM MgCl2, and the inhibitor compound in a 5-250 μM concentration range (2% residual final concentration of DMSO). Reactions were initiated through addition of 0.4 μM CaFADS, being the final reaction volume 100 μL. Flavin fluorescence (excitation at 440 nm and emission at 530 nm) was registered at 25 °C, every 50 s during 15 min. The fluorescence change per time unit (ΔF/Δt) was calculated as the slope of the resulting fluorescence decays recorded between 0 and 6 min (linear decay of the fluorescence). Controls which contained the reaction mixture without the enzyme and without any potential CaFADS inhibitory compound were included in the assay and referred as the 0% and 100% of enzymatic activity, respectively. IC50 was calculated as the concentration of compound required for a 50% inhibition of the enzymatic activity.

HeLa = test: MTT cytotoxicity assay; format: cell-based; details: 24 h; for IC50: 4-512 μM range, read-out: IC50 (concentration causing 50% inhibition of cellular viability)
Procedure: (§2) The (4,5-dimethylthiazol-2-yl)-2,5-diphenyl tetrazolium bromide (MTT) assay was used to determine the effect of the compounds in cell growth and viability of HeLa (ATCC CCL-2) and A549 (ATCC CCL-185) eukaryotic cell lines. Both cell lines were routinely cultured in high-glucose DMEM (Lonza) supplemented with 10% fetal bovine serum, 4 mM glutamine GlutaMAX™ (Gibco) and 1x non-essential amino acids (Gibco), under 5% CO2 at 37 °C in a humidified atmosphere. For the MTT assay, cells were initially seeded in 96-well flat-bottom plates at a density of 10^4 cells per well and cultured for 24 h. Cultures were routinely tested for mycoplasma presence. The compounds were dissolved in fresh culture medium, added in a 4-512 μM concentration range (1% DMSO final concentration), and incubated with the cells for 24 h. Finally, formazan crystals were dissolved with pure DMSO and MTT absorbance was measured at 570 and 650 nm. Untreated cells were included as control of 100% viability. Assays were done in quadruplicate.

A549 = test: MTT cytotoxicity assay; format: cell-based; details: 24 h; for IC50: 4-512 μM range, read-out: IC50 (concentration causing 50% inhibition of cellular viability)
Procedure: as §2

[1] = biological target: T3, RFK+FMNAT CaFADS activities (Corynebacterium ammoniagenes, UniProt Q59263); test: Inhibition of the RFK+FMNAT activity of CaFADS; format: biochemical; details: residual activity at 250 μM of compound, 25 °C
T3 construct: made in house; host or cells: Escherichia coli BL21(DE3)
Procedure: as §1

S. aureus = test: MIC, resazurin broth microdilution; format: cell-based, Staphylococcus aureus; details: media MH
[2] = complete viability at lower concentrations

T1 sequence (Q59263 whole entry): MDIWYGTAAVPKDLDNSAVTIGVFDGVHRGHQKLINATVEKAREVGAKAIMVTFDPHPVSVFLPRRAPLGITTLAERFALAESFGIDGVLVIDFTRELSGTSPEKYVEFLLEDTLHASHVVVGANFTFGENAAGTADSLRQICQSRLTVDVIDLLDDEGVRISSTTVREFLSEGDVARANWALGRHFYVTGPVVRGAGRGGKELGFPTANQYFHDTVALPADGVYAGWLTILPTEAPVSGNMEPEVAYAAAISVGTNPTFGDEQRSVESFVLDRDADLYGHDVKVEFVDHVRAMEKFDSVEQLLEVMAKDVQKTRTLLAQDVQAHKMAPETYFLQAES
T2 sequence (Q59263 whole entry): as above
T3 sequence (Q59263 whole entry): as above

Compound	MIC (C. glutamicum)	MIC (P. aeruginosa)	MIC (Bacillus spp.)	Tm shift of CaFADS thermal denaturation (CaFADS)	Kd (CaFADS)	MIC Mycobacterium species (Mycobacteriumspecies)	MIC (L. monocytogenes)	MIC (M. smegmatis)	MIC (C. ammoniagenes; media BHI)	MIC (C. ammoniagenes; media MH)	MIC (C. ammoniagenes; media MH+DFO)	MIC (C. ammoniagenes; media MH+DIP)	MIC (C. ammoniagenes; media MH+DIP+DFO)	MIC (μM) C. ammoniagenes (C. ammoniagenes)	MIC (C. diphteriae; media BHI)	MIC (C. diphteriae; media MH)	MIC (S. pneumoniae; media BHI)	MIC (μM) M. tuberculosis (M. tuberculosis)	MIC (E. coli)	MIC (S. thyphimurium)	further results
O=C(Nc1ccccc1C(=O)O)OCC1c2ccccc2-c2ccccc21 [Compound C5, 2-{[(9H-9-fluorenylmethoxy)carbonyl]amino}benzoic acid]	32 µM (≈ 11.5 µg/mL)	> 256 µM	32 µM (≈ 11.5 µg/mL)	shifted it to lower values	1.7 ± 0.7 µM	lower than 256 μM	> 64 µM	> 256 µM	> 64 µM	32 µM (≈ 11.5 µg/mL)	32 µM (≈ 11.5 µg/mL)	32 µM (≈ 11.5 µg/mL)	32 µM (≈ 11.5 µg/mL)	32 µM (≈ 11.5 µg/mL)	64 µM (≈ 23 µg/mL)	32 µM (≈ 11.5 µg/mL)	128 µM (≈ 46 µg/mL)	128 µM (≈ 46 µg/mL)	> 64 µM	> 256 µM	MIC (S. pneumoniae; media MH): 256 µM (≈ 92 µg/mL); MIC (M. tuberculosis): 128 µM (≈ 46 µg/mL); inhibition of the FMNAT activity of CaFADS (FMNAT activity of CaFADS; at the maximal compound concentration assayed (250 μM)): over 90%; IC50 (HeLa): > 512 µM; IC50 (A549): > 512 µM
CC(C)c1ccc(NC(=S)NNC(=O)NC(=O)c2csc([N+](=O)[O-])c2)cc1 [Compound C6, N-({2-[(4-isopropylanilino)carbothioyl]hydrazino}carbonyl)-5-nitrothiophene-3-carboxamide]	> 64 µM	> 256 µM		more than 3 degrees	41 ± 3 µM	lower than 256 μM	> 64 µM	> 256 µM	> 64 µM	128 µM (≈ 52.2 µg/mL)	128 µM (≈ 52.2 µg/mL)	128 µM (≈ 52.2 µg/mL)	128 µM (≈ 52.2 µg/mL)	128 µM (≈ 52.2 µg/mL)	> 64 µM	128 µM (≈ 52.2 µg/mL)	> 256 µM	128 µM (≈ 52.2 µg/mL)	> 64 µM	> 256 µM	MIC C. ammoniagenes (C. ammoniagenes): lower than 256 μM; MIC (S. pneumoniae; media MH): 64 µM (≈ 26.1 µg/mL); RFK+FMNAT % Res. act. 250 μM [1]: 57 ± 3%; MIC (S. aureus): > 256 µM; FMNAT % Res. act. 250 μM (FMNAT activity of CaFADS; residual activity at 250 μM of compound, 25 °C): 48 ± 6%; IC50 (HeLa): > 512 µM; IC50 (A549): > 512 µM
CC1(C)c2ccccc2-n2c1cc1oc(=O)cc(O)c1c2=O [Compound C27, 4-hydroxy-11,11-dimethyl-5,11-dihydro-2H-pyrano[2',3':4,5]pyrido[1,2-a]indole-2,5-dione]	64 µM (≈ 18.9 µg/mL)	> 256 µM	32 µM (≈ 9.45 µg/mL)			lower than 256 μM	64 µM (≈ 18.9 µg/mL)			128 µM (≈ 37.8 µg/mL)	128 µM (≈ 37.8 µg/mL)	64 µM (≈ 18.9 µg/mL)	128 µM (≈ 37.8 µg/mL)	128 µM (≈ 37.8 µg/mL)		64 µM (≈ 18.9 µg/mL)		256 µM (≈ 75.6 µg/mL)	> 256 µM	> 256 µM	MIC C. ammoniagenes (C. ammoniagenes): lower than 256 μM; MIC (M. tuberculosis): 256 µM (≈ 75.6 µg/mL); MIC (S. aureus): 64 µM (≈ 18.9 µg/mL); concentration range with moderate cytotoxicity (HeLa; [2]): 256 to 512 µM; concentration range with moderate cytotoxicity (A549; [2]): 256 to 512 µM
